Legend:
benzodiazepine receptors [1] = assay: in vitro displacement of 3H flunitrazepam (or 3H diazepam) from benzodiazepine receptors, rat cerebrum suspension; format: binding; conditions: rat cerebral membrane suspension, 3H flunitrazepam 1.0 nM, 0° C., pH 7.1
benzodiazepine receptor = assay: in vivo reduction of specific binding of 3H flunitrazepam to the benzodiazepine receptor in living brain, mice; design: unit not given beside the values; conditions: normally subcutaneous, 3H flunitrazepam i.v. after 15 minutes, sacrificed after another 20 minutes
benzodiazepine receptors [2] = conditions: footnote * Nature 294(1981)472; cited from earlier work

Row | Molecule | IC50, displacement of specific binding of 3H flunitrazepam (in vitro) (benzodiazepine receptors [1]) [ng/mL] | ED50, reduction of specific binding of flunitrazepam to 50% of control (in vivo) (benzodiazepine receptor) | IC50, displacement of specific binding of 3H flunitrazepam (in vitro), entry footnoted Nature 294(1981)472 (benzodiazepine receptors [2]) [ng/mL]
1 | CCOC(=O)c1ncc2[nH]c3ccc(C4=CCCCCCC4)cc3c2c1C | 19 | – | –
2 | CCOC(=O)c1ncc2[nH]c3ccc(CCc4ccccc4)cc3c2c1C [CO2 Et, Me, H, CH2CH2C6 H5, 6-phenethyl-4-methyl-β-carboline-3-carboxylic acid ethyl ester] | 14 | – | –
3 | 6-(1- and 2-cyclohexen-4-yl)-4-methoxymethyl-3-(3-ethyl-1,2,4-oxadiazol-5-yl)-β-carboline | 1.5 | 1.9 | –
4 | 4-methoxymethyl-6-(1- and 2-cyclohexen-4-yl)-β-carboline-3-carboxylic acid ethyl ester | 0.7 | 0.5 | –
5 | CCOC(=O)c1ncc2[nH]c3cccc(Cc4ccccc4)c3c2c1COC [CO2 Et, CH2 OCH3, CH2C6 H5, H, 5-benzyl-4-methoxymethyl-β-carboline-3-carboxylic acid ethyl ester] | 0.5 | – | –
6 | CCOC(=O)c1cc2c(cn1)[nH]c1ccc(C(C)C)cc12 | 0.9 | – | –
7 | CCOC(=O)c1ncc2[nH]c3ccc(C4CCCCC4)cc3c2c1C | 12 | – | –
8 | CCOC(=O)c1ncc2[nH]c3ccc(C(C)(C)C)cc3c2c1C [CO2 Et, Me, H, C(CH3)3, 6-tert-butyl-4-methyl-β-carboline-3-carboxylic acid ethyl ester] | 7.5 | – | –
9 | CCOC(=O)c1ncc2[nH]c3ccc(C4CCCC(=O)C4)cc3c2c1C (stereo not drawn) | 0.6 | – | –
10 | COC(=O)c1cc2c(cn1)[nH]c1ccccc12 [CO2 Me, H, H, H] | – | – | 1.9
